These results are taken from patent US20230107770A1, “METHOD OF ENHANCING IMMUNOTHERAPY USING ER STRESS PATHWAY INHIBITORS” (H. LEE MOFFITT CANCER CENTER AND RESEARCH INSTITUTE, INC., priority 2020, published 2023).

Assay [1] deals with murine BM-MDSC. The assay is described as follows: In vitro suppression assay with murine BM-MDSC. It is filed as cell-based, mouse. The protocol:
Mouse BM-MDSC were generated after culturing BM precursors with GM-CSF and G-CSF (20 ng/ml each) for 4 days. In vitro generated MDSC were treated with either LLC tumor explant supernatants (TES, since day 0) or Thaps (200 nM, for the last 24 hours of culture). Human BM-MDSC were developed after culturing BM or peripheral blood precursors from healthy donors with GM-CSF and IL-6 (10 ng/ml each) for a period of 6 days (Thevenot et al., 2014). To induce UPR activation, MDSC were treated with either supernatants from renal cell carcinoma cells 786-0 (hTES) for 6 days (Rodriguez et al., 2009) or Thaps during the last 24 hours before collection (200 nM). In some experiments, MDSC were pre-incubated for 3 hours with Resveratrol (100 μM, Sigma-Aldrich), D,L-Sulphoraphane (20 μM), AMG-44 (5 μM), or TUDCA (500 nM) before treating with Thaps.
(§1) Murine BM-MDSC (ratio 1:1/8) or tumor-MDSC (ratio 1:1/4) were co-cultured with negatively selected CD3^+ T cells in a 96 well plate bound α-CD3 and α-CD28 (1 μg/ml each, eBioscience) for 3 days. T cell proliferation was assessed with Carboxyfluorescein succinimidyl ester (CFSE) or Cell-trace violet (Invitrogen) dye dilution detected by flow cytometry. For human studies, MDSC were co-cultured with enriched CD3^+ T cells activated with soluble α-CD3 (1 μg/ml, clone OKT3) and α-CD28 (0.5 μg/ml, clone L293) for 3 days in a 96 well plate bound with goat anti-mouse IgG (10 μg/ml). Results are expressed as percentage of proliferating T cells, determined by the dilution of fluorescence compared with non-stimulated T cells.

For assay [2], the system named is CD8+ TILs. Kind of assay: Flow cytometry of tumor-infiltrating CD8+ T cells from treated mice. It is filed as in vivo. The procedure: All analysis was performed using FlowJo version 11 software.
The test system of assay [3] is tumor-MDSC. The assay is described as follows: Ex vivo suppression assay: tumor-MDSC co-cultured with primed CFSE-labeled T cells. The format is cell-based, mice. The note with it: tumor-MDSC (1:1/4) from B16-bearing mice; AMG-44 12 mg/kg. The procedure:
CD3^+ T cells were enriched using mouse or human T cell negative selection kits (MagniSort, Invitrogen) from the spleen and lymph nodes of C57BL/6 mice; or from purchased human buffy-coat units (One-Blood, Tampa, Fla.). Purity ranged between 95% and 99% as tested by flow cytometry. For antigen-specific priming studies, CD8^+ T cells were enriched using negative selection kits from the spleens of OT-I mice previously activated with OVA257-264 (SIINFEKL) for 48 hours. Tumor-MDSC were isolated from cellular suspensions of digested tumors followed by positive selection (MojoSort Streptavidin Nanobeads, Biolegend) using anti-Gr1 (Clone RB6-8C5, eBioscience) or anti-CD11b-biotinylated antibodies (Clone M1/70, StemCell Technologies, Vancouver). Also, M-MDSC (CD11b^+Gr1^+Ly6G^lowLy6C^high), PMN-MDSC (CD11b^+Gr1^+Ly6G^+Ly6C^low), macrophages (CD11b^+Gr1^negF4/80^+CD11c^neg), and myeloid DCs (CD11b^+Gr1^negF4/80^negCD11c^+) were sorted from tumors in a FACSAriaII (BD Biosciences).
as §1

With `Cc1ccc2cc(-c3c(C)ccc(C(=O)c4c(-c5ccccc5)n(C)n(-c5ccccc5)c4=O)c3N)ccc2n1` [AMG-44], in assay [1] (BM-MDSC (1:1/8) exposed 3 hours to 5 μM AMG-44), the “ability of Thaps-treated BM-MDSC to impair T cell proliferation” value was “overcame the ability of Thaps-treated BM-MDSC to impair T cell proliferation”. Further, the MDSC-baseline activity entry in assay [1] (control BM-MDSC exposed 3 hours to 5 μM AMG-44) was “without affecting MDSC-baseline activity”. For the same compound, the “tumor-infiltrating CD8+ T cells expressing IFNγ” value in assay [2] (B16-bearing mice, AMG-44 12 mg/kg) is recorded as “induced expansion”. Also, the “frequency of IFNγ-producing CD8+ T cells in tumors” value in assay [2] (B16, GSK2606414 25 mg/kg or AMG-44 12 mg/kg, 17 days post-tumor injection) was “amplified the frequency of IFNγ-producing CD8^+ T cells in tumors”. Besides, the “immunoinhibitory activity of tumor-MDSC” value in assay [3] is reported as “impaired the immunoinhibitory activity of tumor-MDSC”.
